# Data as given in ChEMBL document CHEMBL3885881, “DrugMatrix”.
# Species on record: Rattus norvegicus
# Assay: DrugMatrix - Regimen: Daily Repeat
# Format: toxicity, organism-based, Sprague-Dawley
# Design: regimen Daily Repeat, gender Male, age 6-8 weeks
# Conditions: in vivo, sc, 120 h, route subcutaneous, time 5 day, vehicle 100 % SALINE; for ABSOLUTE BASOPHIL / ABSOLUTE EOSINOPHIL / ABSOLUTE LYMPHOCYTE / ABSOLUTE MONOCYTE / ABSOLUTE SEGMENTED NEUTROPHIL / BASOPHIL / EOSINOPHIL / ERYTHROCYTE COUNT / HEMATOCRIT / HEMOGLOBIN / LEUKOCYTE COUNT / LYMPHOCYTE / MEAN CORPUSCULAR HEMOGLOBIN / MEAN CORPUSCULAR HEMOGLOBIN CONCENTRATION / MEAN CORPUSCULAR VOLUME / MONOCYTE / NEUTROPHIL / NUCLEATED RED BLOOD CELLS / PLATELET COUNT: tissue Blood; for ALANINE AMINOTRANSFERASE / ALBUMIN / ALKALINE PHOSPHATASE / ASPARTATE AMINOTRANSFERASE / BLOOD UREA NITROGEN / CARBON DIOXIDE / CHLORIDE / CHOLESTEROL / CREATINE PHOSPHOKINASE / CREATININE / GLUCOSE / LACTATE DEHYDROGENASE / LIPASE / PHOSPHORUS / POTASSIUM / SODIUM / TOTAL BILIRUBIN / TOTAL PROTEIN / URIC ACID: tissue Plasma
compound,measurement,setting,value
CC(N)Cc1c[nH]c2ccc(OCc3cccs3)cc12 (centres undefined) [BW-723C86],ABSOLUTE BASOPHIL,"0 mg/kg, dose level Control",0 CELLS/uL
same,ABSOLUTE EOSINOPHIL,"0 mg/kg, dose level Control",0 CELLS/uL
same,ABSOLUTE LYMPHOCYTE,"0 mg/kg, dose level Control",5956.67 CELLS/uL
same,ABSOLUTE MONOCYTE,"0 mg/kg, dose level Control",0 CELLS/uL
same,ABSOLUTE SEGMENTED NEUTROPHIL,"0 mg/kg, dose level Control",510 CELLS/uL
same,BASOPHIL,"0 mg/kg, dose level Control",0%
same,EOSINOPHIL,"0 mg/kg, dose level Control",0%
same,ERYTHROCYTE COUNT,"0 mg/kg, dose level Control",5.39 x10E6/uL
same,HEMATOCRIT,"0 mg/kg, dose level Control",32.5%
same,HEMOGLOBIN,"0 mg/kg, dose level Control",12.47 G/DL
same,LEUKOCYTE COUNT,"0 mg/kg, dose level Control",6.47 x10E3/uL
same,LYMPHOCYTE,"0 mg/kg, dose level Control",92%
same,MEAN CORPUSCULAR HEMOGLOBIN,"0 mg/kg, dose level Control",23.13 pg
same,MEAN CORPUSCULAR HEMOGLOBIN CONCENTRATION,"0 mg/kg, dose level Control",38.37 G/DL
same,MEAN CORPUSCULAR VOLUME,"0 mg/kg, dose level Control",60.3 fL
same,MONOCYTE,"0 mg/kg, dose level Control",0%
same,NEUTROPHIL,"0 mg/kg, dose level Control",8%
same,NUCLEATED RED BLOOD CELLS,"0 mg/kg, dose level Control",0.33 /100WBC
same,PLATELET COUNT,"0 mg/kg, dose level Control",888 x10E3/uL
same,ALANINE AMINOTRANSFERASE,"0 mg/kg, dose level Control",43.67 u/L
same,ALBUMIN,"0 mg/kg, dose level Control",4.37 G/DL
same,ALKALINE PHOSPHATASE,"0 mg/kg, dose level Control",356 u/L
same,ASPARTATE AMINOTRANSFERASE,"0 mg/kg, dose level Control",74 u/L
same,BLOOD UREA NITROGEN,"0 mg/kg, dose level Control",11 mg/dL
same,CARBON DIOXIDE,"0 mg/kg, dose level Control",32.33 mmol/L
same,CHLORIDE,"0 mg/kg, dose level Control",103.33 MEQ/L
same,CHOLESTEROL,"0 mg/kg, dose level Control",70.67 mg/dL
same,CREATINE PHOSPHOKINASE,"0 mg/kg, dose level Control",195.33 u/L
same,CREATININE,"0 mg/kg, dose level Control",0.16 mg/dL
same,GLUCOSE,"0 mg/kg, dose level Control",161.67 mg/dL
same,LACTATE DEHYDROGENASE,"0 mg/kg, dose level Control",84 u/L
same,LIPASE,"0 mg/kg, dose level Control",9 u/L
same,PHOSPHORUS,"0 mg/kg, dose level Control",12.57 mg/dL
same,POTASSIUM,"0 mg/kg, dose level Control",6.87 MEQ/L
same,SODIUM,"0 mg/kg, dose level Control",147.6 MEQ/L
same,TOTAL BILIRUBIN,"0 mg/kg, dose level Control",0.13 mg/dL
same,TOTAL PROTEIN,"0 mg/kg, dose level Control",6.27 G/DL
same,URIC ACID,"0 mg/kg, dose level Control",1.67 mg/dL
same,ABSOLUTE BASOPHIL,"10 mg/kg, dose level Low",0 CELLS/uL
same,ABSOLUTE EOSINOPHIL,"10 mg/kg, dose level Low",0 CELLS/uL
same,ABSOLUTE LYMPHOCYTE,"10 mg/kg, dose level Low",5627 CELLS/uL
same,ABSOLUTE MONOCYTE,"10 mg/kg, dose level Low",73.33 CELLS/uL
same,ABSOLUTE SEGMENTED NEUTROPHIL,"10 mg/kg, dose level Low",866.33 CELLS/uL
same,BASOPHIL,"10 mg/kg, dose level Low",0%
same,EOSINOPHIL,"10 mg/kg, dose level Low",0%
same,ERYTHROCYTE COUNT,"10 mg/kg, dose level Low",5.18 x10E6/uL
same,HEMATOCRIT,"10 mg/kg, dose level Low",31.03%
same,HEMOGLOBIN,"10 mg/kg, dose level Low",12 G/DL
same,LEUKOCYTE COUNT,"10 mg/kg, dose level Low",6.57 x10E3/uL
same,LYMPHOCYTE,"10 mg/kg, dose level Low",85.33%
same,MEAN CORPUSCULAR HEMOGLOBIN,"10 mg/kg, dose level Low",23.2 pg
same,MEAN CORPUSCULAR HEMOGLOBIN CONCENTRATION,"10 mg/kg, dose level Low",38.67 G/DL
same,MEAN CORPUSCULAR VOLUME,"10 mg/kg, dose level Low",60 fL
same,MONOCYTE,"10 mg/kg, dose level Low",1%
same,NEUTROPHIL,"10 mg/kg, dose level Low",13.67%
same,NUCLEATED RED BLOOD CELLS,"10 mg/kg, dose level Low",0.33 /100WBC
same,PLATELET COUNT,"10 mg/kg, dose level Low",1156.33 x10E3/uL
same,ALANINE AMINOTRANSFERASE,"10 mg/kg, dose level Low",53.33 u/L
same,ALBUMIN,"10 mg/kg, dose level Low",4.03 G/DL
same,ALKALINE PHOSPHATASE,"10 mg/kg, dose level Low",406.67 u/L
same,ASPARTATE AMINOTRANSFERASE,"10 mg/kg, dose level Low",85.67 u/L
same,BLOOD UREA NITROGEN,"10 mg/kg, dose level Low",14.67 mg/dL
same,CARBON DIOXIDE,"10 mg/kg, dose level Low",33.33 mmol/L
same,CHLORIDE,"10 mg/kg, dose level Low",103.33 MEQ/L
same,CHOLESTEROL,"10 mg/kg, dose level Low",90.33 mg/dL
same,CREATINE PHOSPHOKINASE,"10 mg/kg, dose level Low",200.33 u/L
same,CREATININE,"10 mg/kg, dose level Low",0.18 mg/dL
same,GLUCOSE,"10 mg/kg, dose level Low",150.33 mg/dL
same,LACTATE DEHYDROGENASE,"10 mg/kg, dose level Low",93 u/L
same,LIPASE,"10 mg/kg, dose level Low",8 u/L
same,PHOSPHORUS,"10 mg/kg, dose level Low",13.1 mg/dL
same,POTASSIUM,"10 mg/kg, dose level Low",7.02 MEQ/L
same,SODIUM,"10 mg/kg, dose level Low",148.43 MEQ/L
same,TOTAL BILIRUBIN,"10 mg/kg, dose level Low",0.1 mg/dL
same,TOTAL PROTEIN,"10 mg/kg, dose level Low",6.43 G/DL
same,URIC ACID,"10 mg/kg, dose level Low",1.67 mg/dL
same,ABSOLUTE BASOPHIL,"50 mg/kg, dose level High",0 CELLS/uL
same,ABSOLUTE EOSINOPHIL,"50 mg/kg, dose level High",0 CELLS/uL
same,ABSOLUTE LYMPHOCYTE,"50 mg/kg, dose level High",7706.33 CELLS/uL
same,ABSOLUTE MONOCYTE,"50 mg/kg, dose level High",71.33 CELLS/uL
same,ABSOLUTE SEGMENTED NEUTROPHIL,"50 mg/kg, dose level High",3055.67 CELLS/uL
same,BASOPHIL,"50 mg/kg, dose level High",0%
same,EOSINOPHIL,"50 mg/kg, dose level High",0%
same,ERYTHROCYTE COUNT,"50 mg/kg, dose level High",5.21 x10E6/uL
same,HEMATOCRIT,"50 mg/kg, dose level High",30.4%
same,HEMOGLOBIN,"50 mg/kg, dose level High",11.63 G/DL
same,LEUKOCYTE COUNT,"50 mg/kg, dose level High",10.83 x10E3/uL
same,LYMPHOCYTE,"50 mg/kg, dose level High",71%
same,MEAN CORPUSCULAR HEMOGLOBIN,"50 mg/kg, dose level High",22.4 pg
same,MEAN CORPUSCULAR HEMOGLOBIN CONCENTRATION,"50 mg/kg, dose level High",38.3 G/DL
same,MEAN CORPUSCULAR VOLUME,"50 mg/kg, dose level High",58.4 fL
same,MONOCYTE,"50 mg/kg, dose level High",0.67%
same,NEUTROPHIL,"50 mg/kg, dose level High",28.33%
same,NUCLEATED RED BLOOD CELLS,"50 mg/kg, dose level High",0.33 /100WBC
same,PLATELET COUNT,"50 mg/kg, dose level High",1382.67 x10E3/uL
same,ALANINE AMINOTRANSFERASE,"50 mg/kg, dose level High",47.33 u/L
same,ALBUMIN,"50 mg/kg, dose level High",3.33 G/DL
same,ALKALINE PHOSPHATASE,"50 mg/kg, dose level High",343 u/L
same,ASPARTATE AMINOTRANSFERASE,"50 mg/kg, dose level High",83.67 u/L
same,BLOOD UREA NITROGEN,"50 mg/kg, dose level High",15 mg/dL
same,CARBON DIOXIDE,"50 mg/kg, dose level High",28 mmol/L
same,CHLORIDE,"50 mg/kg, dose level High",104.33 MEQ/L
same,CHOLESTEROL,"50 mg/kg, dose level High",78.33 mg/dL
same,CREATINE PHOSPHOKINASE,"50 mg/kg, dose level High",168.33 u/L
same,CREATININE,"50 mg/kg, dose level High",0.18 mg/dL
same,GLUCOSE,"50 mg/kg, dose level High",174 mg/dL
same,LACTATE DEHYDROGENASE,"50 mg/kg, dose level High",96.33 u/L
same,LIPASE,"50 mg/kg, dose level High",8.33 u/L
same,PHOSPHORUS,"50 mg/kg, dose level High",13.63 mg/dL
same,POTASSIUM,"50 mg/kg, dose level High",6.41 MEQ/L
same,SODIUM,"50 mg/kg, dose level High",147.13 MEQ/L
same,TOTAL BILIRUBIN,"50 mg/kg, dose level High",0.1 mg/dL
same,TOTAL PROTEIN,"50 mg/kg, dose level High",5.87 G/DL
same,URIC ACID,"50 mg/kg, dose level High",2.1 mg/dL
